Results published in patent US7964531B2, “3-phenoxy-4-pyridazinol derivatives and herbicidal composition containing the same” (Mitsui Chemicals Agro, Inc., priority 2001, dated 2011).

What was measured:
Type in all cases: in vivo
Conditions in all cases: wettable powder applied 3 days after transplanting, judged after 25 days
Cyperus serotinus = test: Test Example 1: herbicidal effects, paddy-field pot test
Method in brief: (§1)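 Scores are growth inhibition ratings from 0 (0–10%) to 5 (91–100%), judged 25 days after a water-diluted wettable powder was applied to flooded pots. Treatment followed transplanting of 2.2-leaf rice by 3 days; weeds were seeded at the soil surface or planted as germinated tubers.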

Scirpus joncoides = test: as above
Method in brief: as §1

[1] = tested on: annual broad-leaved weeds (Lindernia spp., Rotala indica); test: as above
Method in brief: as §1

[2] = tested on: barnyardgrass (Echinochloa oryzicola Vasing.); test: as above
Method in brief: as §1

[3] = tested on: transplanted paddy-field rice; test: Test Example 1: crop injury against transplanted paddy-field rice
Method in brief: as §1

SMILES	Herbicidal effects Cyperus serotinus (Cyperus serotinus; chemical dosage 12.5 g/a)	Herbicidal effects Cyperus serotinus (Cyperus serotinus; chemical dosage 25 g/a)	Herbicidal effects Scirpus joncoides (Scirpus joncoides; chemical dosage 12.5 g/a)	Herbicidal effects Scirpus joncoides (Scirpus joncoides; chemical dosage 25 g/a)	Herbicidal effects Broad leaf ([1]; chemical dosage 12.5 g/a)	Herbicidal effects Broad leaf ([1]; chemical dosage 25 g/a)	Herbicidal effects Barnyard grass ([2]; chemical dosage 12.5 g/a)	Herbicidal effects Barnyard grass ([2]; chemical dosage 25 g/a)	Crop injury against transplanted rice ([3]; chemical dosage 12.5 g/a)	Crop injury against transplanted rice ([3]; chemical dosage 25 g/a)	Herbicidal effects Cyperus serotinus (Cyperus serotinus; chemical dosage 10 g/a)	Herbicidal effects Cyperus serotinus (Cyperus serotinus; chemical dosage 20 g/a)	Herbicidal effects Scirpus joncoides (Scirpus joncoides; chemical dosage 10 g/a)	Herbicidal effects Scirpus joncoides (Scirpus joncoides; chemical dosage 20 g/a)	Herbicidal effects Broad leaf ([1]; chemical dosage 10 g/a)	Herbicidal effects Broad leaf ([1]; chemical dosage 20 g/a)	Herbicidal effects Barnyard grass ([2]; chemical dosage 10 g/a)	Herbicidal effects Barnyard grass ([2]; chemical dosage 20 g/a)	Crop injury against transplanted rice ([3]; chemical dosage 10 g/a)	Crop injury against transplanted rice ([3]; chemical dosage 20 g/a)
CCc1cccc(CC)c1Oc1nnc(Cl)cc1O [Example 268]	5 (Growth inhibition rate; 91 to 100%)	5 (Growth inhibition rate; 91 to 100%)	5 (Growth inhibition rate; 91 to 100%)	5 (Growth inhibition rate; 91 to 100%)	5 (Growth inhibition rate; 91 to 100%)	5 (Growth inhibition rate; 91 to 100%)	0 (Growth inhibition rate; 0 to 10%)	1 (Growth inhibition rate; 11 to 30%)	1 (Growth inhibition rate; 11 to 30%)	1 (Growth inhibition rate; 11 to 30%)	–	–	–	–	–	–	–	–	–	–
COc1cccc(Br)c1Oc1nnc(Cl)cc1O [Example 255]	–	–	–	–	–	–	–	–	–	–	5 (Growth inhibition rate; 91 to 100%)	5 (Growth inhibition rate; 91 to 100%)	4 (Growth inhibition rate; 71 to 90%)	4 (Growth inhibition rate; 71 to 90%)	5 (Growth inhibition rate; 91 to 100%)	5 (Growth inhibition rate; 91 to 100%)	5 (Growth inhibition rate; 91 to 100%)	5 (Growth inhibition rate; 91 to 100%)	0 (Growth inhibition rate; 0 to 10%)	2 (Growth inhibition rate; 31 to 50%)
CC(C)(C)c1cccc(C2CC2)c1Oc1nnc(Cl)cc1O [Example 274]	–	–	–	–	–	–	–	–	–	–	4 (Growth inhibition rate; 71 to 90%)	4 (Growth inhibition rate; 71 to 90%)	3 (Growth inhibition rate; 51 to 70%)	4 (Growth inhibition rate; 71 to 90%)	5 (Growth inhibition rate; 91 to 100%)	5 (Growth inhibition rate; 91 to 100%)	3 (Growth inhibition rate; 51 to 70%)	3 (Growth inhibition rate; 51 to 70%)	0 (Growth inhibition rate; 0 to 10%)	0 (Growth inhibition rate; 0 to 10%)
CC(C)c1cccc(Cl)c1Oc1nnc(Cl)cc1O [Example 18]	5 (Growth inhibition rate; 91 to 100%)	5 (Growth inhibition rate; 91 to 100%)	3 (Growth inhibition rate; 51 to 70%)	4 (Growth inhibition rate; 71 to 90%)	5 (Growth inhibition rate; 91 to 100%)	5 (Growth inhibition rate; 91 to 100%)	0 (Growth inhibition rate; 0 to 10%)	1 (Growth inhibition rate; 11 to 30%)	1 (Growth inhibition rate; 11 to 30%)	2 (Growth inhibition rate; 31 to 50%)	–	–	–	–	–	–	–	–	–	–
CCCS(=O)(=O)Oc1cc(Cl)nnc1Oc1cccc2c1CCC2 [Example 361]	–	–	–	–	–	–	–	–	–	–	4 (Growth inhibition rate; 71 to 90%)	5 (Growth inhibition rate; 91 to 100%)	5 (Growth inhibition rate; 91 to 100%)	5 (Growth inhibition rate; 91 to 100%)	5 (Growth inhibition rate; 91 to 100%)	5 (Growth inhibition rate; 91 to 100%)	2 (Growth inhibition rate; 31 to 50%)	3 (Growth inhibition rate; 51 to 70%)	0 (Growth inhibition rate; 0 to 10%)	0 (Growth inhibition rate; 0 to 10%)
Cc1ccccc1Oc1nnc(Br)cc1O [Example 34]	–	–	–	–	–	–	–	–	–	–	5 (Growth inhibition rate; 91 to 100%)	5 (Growth inhibition rate; 91 to 100%)	2 (Growth inhibition rate; 31 to 50%)	4 (Growth inhibition rate; 71 to 90%)	2 (Growth inhibition rate; 31 to 50%)	4 (Growth inhibition rate; 71 to 90%)	1 (Growth inhibition rate; 11 to 30%)	2 (Growth inhibition rate; 31 to 50%)	0 (Growth inhibition rate; 0 to 10%)	0 (Growth inhibition rate; 0 to 10%)
Oc1cc(Cl)nnc1Oc1c(Br)ccc2c1CCC2 [Example 304]	–	–	–	–	–	–	–	–	–	–	4 (Growth inhibition rate; 71 to 90%)	5 (Growth inhibition rate; 91 to 100%)	4 (Growth inhibition rate; 71 to 90%)	5 (Growth inhibition rate; 91 to 100%)	5 (Growth inhibition rate; 91 to 100%)	5 (Growth inhibition rate; 91 to 100%)	4 (Growth inhibition rate; 71 to 90%)	4 (Growth inhibition rate; 71 to 90%)	0 (Growth inhibition rate; 0 to 10%)	0 (Growth inhibition rate; 0 to 10%)
CC(C)c1cccc(F)c1Oc1nnc(Cl)cc1O [Example 235]	–	–	–	–	–	–	–	–	–	–	5 (Growth inhibition rate; 91 to 100%)	5 (Growth inhibition rate; 91 to 100%)	5 (Growth inhibition rate; 91 to 100%)	5 (Growth inhibition rate; 91 to 100%)	5 (Growth inhibition rate; 91 to 100%)	5 (Growth inhibition rate; 91 to 100%)	3 (Growth inhibition rate; 51 to 70%)	3 (Growth inhibition rate; 51 to 70%)	0 (Growth inhibition rate; 0 to 10%)	0 (Growth inhibition rate; 0 to 10%)
Oc1cc(Cl)nnc1Oc1ccccc1Cl [Example 50]	5 (Growth inhibition rate; 91 to 100%)	5 (Growth inhibition rate; 91 to 100%)	3 (Growth inhibition rate; 51 to 70%)	4 (Growth inhibition rate; 71 to 90%)	5 (Growth inhibition rate; 91 to 100%)	5 (Growth inhibition rate; 91 to 100%)	2 (Growth inhibition rate; 31 to 50%)	3 (Growth inhibition rate; 51 to 70%)	0 (Growth inhibition rate; 0 to 10%)	0 (Growth inhibition rate; 0 to 10%)	–	–	–	–	–	–	–	–	–	–
Cc1cc(C)c(Br)c(Oc2nnc(Cl)cc2O)c1C [Example 319]	–	–	–	–	–	–	–	–	–	–	5 (Growth inhibition rate; 91 to 100%)	5 (Growth inhibition rate; 91 to 100%)	5 (Growth inhibition rate; 91 to 100%)	5 (Growth inhibition rate; 91 to 100%)	5 (Growth inhibition rate; 91 to 100%)	5 (Growth inhibition rate; 91 to 100%)	2 (Growth inhibition rate; 31 to 50%)	3 (Growth inhibition rate; 51 to 70%)	0 (Growth inhibition rate; 0 to 10%)	0 (Growth inhibition rate; 0 to 10%)
Oc1cc(Cl)nnc1Oc1ccccc1C1CCC1 [Example 85]	–	–	–	–	–	–	–	–	–	–	5 (Growth inhibition rate; 91 to 100%)	–	3 (Growth inhibition rate; 51 to 70%)	–	4 (Growth inhibition rate; 71 to 90%)	–	2 (Growth inhibition rate; 31 to 50%)	–	0 (Growth inhibition rate; 0 to 10%)	–
COC(=O)Oc1cc(Cl)nnc1Oc1ccccc1C1CC1 [Example 345]	–	–	–	–	–	–	–	–	–	–	5 (Growth inhibition rate; 91 to 100%)	5 (Growth inhibition rate; 91 to 100%)	5 (Growth inhibition rate; 91 to 100%)	5 (Growth inhibition rate; 91 to 100%)	5 (Growth inhibition rate; 91 to 100%)	5 (Growth inhibition rate; 91 to 100%)	3 (Growth inhibition rate; 51 to 70%)	4 (Growth inhibition rate; 71 to 90%)	0 (Growth inhibition rate; 0 to 10%)	0 (Growth inhibition rate; 0 to 10%)
Cc1ccc(Cl)cc1Oc1nnc(Cl)cc1O [Example 204]	5 (Growth inhibition rate; 91 to 100%)	5 (Growth inhibition rate; 91 to 100%)	5 (Growth inhibition rate; 91 to 100%)	5 (Growth inhibition rate; 91 to 100%)	5 (Growth inhibition rate; 91 to 100%)	5 (Growth inhibition rate; 91 to 100%)	2 (Growth inhibition rate; 31 to 50%)	2 (Growth inhibition rate; 31 to 50%)	0 (Growth inhibition rate; 0 to 10%)	0 (Growth inhibition rate; 0 to 10%)	–	–	–	–	–	–	–	–	–	–
